In patent publication US5929110A, “Fatty acid analogs and prodrugs” (G. D. Searle & Co., priority 1998, dated 1999):
Read-outs that look alike come from different tables or passages of the source.

Key:
[1] = system: HIV-1; assay: inhibition of HIV-1; reduction of cytopathogenic effect in virus-infected Leu-3a-positive CEM cells (MTT assay); type: cell-based, strain HTVL-IIIB; conditions: Human immunodeficiency virus 1, CCRF-CEM, multiplicity of infection 0.1, MTT read on 7th to 9th day post-infection
Experimental: Inhibitory activity against HIV-1 was shown by tests involving plating of susceptible human host cells which are syncytium-sensitive with and without virus in microculture plates, adding various concentrations of the test compound, incubating the plates for 7 to 9 days (during which time infected, non-drug treated control cells are largely or totally destroyed by the virus), and then determining the remaining number of viable cells with a colorometric endpoint.
Various illustrative compounds synthesized above were tested for inhibition of HIV-1 in a test which measured reduction of cytopathogenic effect in virus-infected syncytium-sensitive Leu-3a-positive CEM cells grown in tissue culture as follows:
Tissue culture plates were incubated at 37° C. in a humidified, 5% CO2 atmosphere and observed microscopically for toxicity and/or cytopathogenic effect (CPE). At 1 hour prior to infection each test article was prepared from the frozen stock, and a 20 μl volume of each dilution (prepared as a 10× concentration) was added to the appropriate wells of both infected and uninfected cells.
Assays were done in 96-well tissue culture plates. CEM cells were treated with polybrene at a concentration of 2 μg/ml, and an 80 μl volume of cells (1×10^4 cells) was dispensed into each well. A 100 μl volume of each test article dilution (prepared as a 2× concentration) was added to 5 wells of cells, and the cells were incubated at 37° C. for 1 hour. A frozen culture of HIV-1, strain HTVL-IIIB, was diluted in culture medium to a concentration of 5×10^4 TCID50 per ml, and a 20 μl volume (containing 10^3 TCID50 of virus) was added to 3 of the wells for each test article concentration. […] A 20 μl volume of normal culture medium was added to the remaining wells to allow evaluation of cytotoxicity. Each plate contained 6 wells of untreated, uninfected, cell control samples and 6 wells of untreated, infected, virus control samples.
On the 7th to 9th day post-infection, the cells in each well were resuspended and a 100 μl sample of each cell suspension was removed for use in an MTT assay. A 20 μl volume of a 5 mg/ml solution of 3-(4,5-dimethylthiazol-2-yl)-2,5-diphenyltetrazolium bromide (MTT) was added to each 100 μl cell suspension, and the cells were incubated at 37° C. in 5% CO2 for 4 hours. […] A 100 μl volume of a solution of 10% sodium dodecyl sulfate in 0.01N hydrochloric acid was added to each sample, and the samples were incubated overnight. The absorbance at 590 nm was determined for each sample using a Molecular Devices Vmax microplate reader. This assay detects drug-induced suppression of viral CPE, as well as drug cytotoxicity, by measuring the generation of MTT-formazan by surviving cells.

[2] = biological half-life in rat hepatic S9 preparation; type: in vitro ADME; conditions: liver s9, rat hepatic S9, approximately 2 mcg/mL, 37° C.
Experimental: Various illustrative compounds synthesized in Examples above were tested for biological half-life. Compounds were incubated at a concentration of approximately 2 mcg/mL in a rat liver S9 preparation which was prepared according to standard procedures with minor modifications^1. The reactions were conducted at 37° C. in a water bath and stopped by the addition of ice cold methanol at various times ranging from 0 to 20 minutes. Aliquots of the incubations were analyzed by high performance liquid chromatography (HPLC) for the compound of interest. The analyses were conducted on a Waters HPLC system consisting of a model 510 pump and a Wisp model 712 automatic injector. Waters C18 columns were used to perform the separations. The compounds were detected by UV adsorption. The mobile phases consisted of acetonitrile and sodium phosphate buffer (40 mM, pH 3.5); specific conditions were varied slightly for each compound. Concentrations of each compound were determined with time and the rate of metabolism was determined by analyzing the data using the CSTRIP program^2.
^1 Subcellular Fractionation of Rat Liver. S. Fleischer and M. Kervina in Methods of Enzymology, Vol. XXXI, Biomembranes Part A, S. Fleischer and L. Packer Eds., pp. 6-41 (1974).
^2 A. T. Sedman and J. G. Warner, "CSTRIP. A Fortran IV Computer Program for Obtaining Initial Polyexponential Parameter Estimates.", J. Pharm. Sci. 65, 1006-1010 (1976).

[3] = 0 to 20 minutes, read-out: Half-life

Compound	EC50 [1] [µM]	half-life [2, 3] [min]	half-life ([2]; read-out: Half-life (not detected at initial sampling)) [min]
COCCCCCCCCCCCC(=O)NCc1ccccc1 [Example 14, 12-Methoxy-N-(phenylmethyl)dodecanamide]	3.8	2.41	–
COCCCCCCCCCCCC(=O)Nc1cccc(C(=O)O)c1 [Example 18, 3-[(12-Methoxy-1-oxododecyl)amino]benzoic acid]	> 285	8.46	–
CCOC(=O)[C@@H](CCCCNC(=O)OCc1ccccc1Cl)NC(=O)CCCCCCCCCCCOC [Example 68, N6-[[(2-Chlorophenyl)methoxy]carbonyl]-N2-(12-methoxy-1-oxododecyl)-D-lysine, Ethyl ester]	13.1	8.54	–
CCCCCCCCCCOCCC(=O)N[C@H](Cc1ccccc1)C(=O)OCC [Example 56, N-(3-(Decyloxy)-1-oxopropyl]-D-phenylalanine, Ethyl ester]	> 240	1.97	–
COCCCCCCCCCCCC(=O)N[C@H](Cc1ccccc1)C(=O)OC(C)(C)C [Example 54, N-(12-Methoxy-1-oxododecyl)-D-phenylalanine, 1,1-Dimethylethyl ester]	> 230	–	–
CCOC(=O)CN(C(=O)CCCCCCCCCCCOC)c1ccccc1 [Example 28, N-(12-Methoxy-1-oxododecyl)-N-phenylglycine, Ethyl ester]	> 250	–	–
CCOC(=O)CN(C)C(=O)CCCCCCCCCCCOC [Example 26, N-(12-Methoxy-1-oxododecyl)-N-methylglycine, Ethyl ester]	> 300	–	–
COCCCCCCCCCCCC(N)=O [Example 12, 12-Methoxydodecanamide]	192	–	–
COCCCCCCCCCCCC#N [Example 84, 12-Methoxydodecanenitrile]	> 470	–	–
COCCCCCCCCCCCC(=O)N[C@H](Cc1ccccc1)C(=O)O [Example 83, N-(12-Methoxy-1-oxododecyl)-D-phenylalanine]	> 265	–	–
COCCCCCCCCCCCC(=O)N[C@@H](Cc1ccccc1)C(=O)OC(C)(C)C [Example 50, N-(12-Methoxy-1-oxododecyl)-L-phenylalanine, 1,1-Dimethylethyl ester]	11.1	–	–
CCOC(=O)CCNC(=O)CCCCCCCCCCCOC [Example 30, N-(12-Methoxy-1-oxododecyl)-β-alanine, Ethyl ester]	6.1	–	–
COCCCCCCCCCCCC(=O)OC [Example 8, Methyl 12-Methoxydodecanoate]	6.1	–	–
CCOC(=O)c1cccc(NC(=O)CCCCCCCCCCCOC)c1 [Example 17, Ethyl 3-[(12-Methoxy-1-oxododecyl)amino]-benzoate]	8.2	–	< 5
CCOC(=O)C(C)CNC(=O)CCCCCCCCCCCOC (stereo not drawn) [Example 36, Ethyl 2-[[(12-methoxy-1-oxododecyl)amino]-2-methyl]propanoate]	5.8	–	–
CCOC(=O)[C@H](C)NC(=O)CCCCCCCCCCCOC [Example 31, N-(12-Methoxy-1-oxododecyl)-L-alanine, Ethyl ester]	24	–	–
CCn1nnnc1CCCCCCCCCCCOC [Example 86A, 1-Ethyl-5-(11-methoxyundecyl)-1H-tetrazole]	> 350	–	–

Compound	EC50 [1] [µM]	half-life [2, 3] [min]	half-life ([2]; read-out: Half-life (not detected at initial sampling)) [min]
COCCCCCCCCCCCC(=O)NCC(=O)OC(C)(C)C [Example 23]	9.3	–	–
COCCCCCCCCCCCC(=O)N[C@@H](Cc1ccccc1)C(=O)O [Example 82, N-(12-Methoxy-1-oxododecyl)-L-phenylalanine]	13	–	–
CCOC(=O)[C@H](C)CNC(=O)CCCCCCCCCCCOC [Example 39, Ethyl 3-[[(12-methoxy-1-oxododecyl)amino]-2R-methyl]propanoate]	6.7	–	–
COCCCCCCCOCCCC(=O)O [Example 5, 4-[(7-Methoxyheptyl)oxy]butanoic Acid]	> 430	–	–
CCOC(=O)[C@H](Cc1ccccc1)NC(=O)CCCCCCCCCCCOC [Example 49, N-(12-Methoxy-1-oxododecyl)-L-phenylalanine, Ethyl ester]	5.4	1.07	–
COCCCCCCCCCCCc1nnnn1Cc1ccccc1 [Example 87A, 5-(11-Methoxyundecyl)-1-(phenylmethyl)-1H-tetrazole]	> 290	–	–
CCOC(=O)[C@H](Cc1c[nH]c2ccccc12)NC(=O)CCCCCCCCCCCOC [Example 71, N-(12-Methoxy-1-oxododecyl)-L-tryptophan, Ethyl ester]	18	–	–
COCCCCCCCCCCCC(N)=S [Example 13, 12-Methoxydodecanethioamide]	> 400	–	–
CCOC(=O)CN(Cc1ccccc1)C(=O)CCCCCCCCCCCOC [Example 22, N-(12-Methoxy-1-oxododecyl)-N-(phenylmethyl)-glycine, Ethyl ester]	> 245	–	–
COCCCCCCCCCCCc1nnn[nH]1 [Example 85, 5-(11-Methoxyundecyl)-1H-tetrazole]	> 390	–	–
CCOC(=O)[C@H](NC(=O)CCCCCCCCCCCOC)[C@H](C)CC [Example 48, N-(12-Methoxy-1-oxododecyl)-D-isoleucine, Ethyl ester]	> 265	–	–
CCOC(=O)[C@@H](Cc1ccccc1)NC(=O)CCCCCCCCCCCOC [Example 52, N-(12-Methoxy-1-oxododecyl)-D-phenylalanine, Ethyl ester]	> 245	–	–
COCCCCCCCCCCCC(=O)NCC(=O)O [Example 81]	27.5	–	–
CCN(CC)C(=O)CCCCCCCCCCCOC [Example 15, N,N-Diethyl-12-methoxydodecanamide]	> 350	–	–
CCOC(=O)[C@H](NC(=O)CCCCCCCCCCCOC)[C@H](C)OCc1ccccc1 [Example 80, N-(12-methoxy-1-oxododecyl)-O-(phenylmethyl)-D-threonine, Ethyl ester]	> 225	–	–
CCCCCCCCCCOCCC(=O)NCc1ccccc1 [Example 20, 3-(Decyloxy)-N-(phenylmethyl)propanamide]	> 310	–	–
